Reference: patent US8933017B2, “CD44V6 peptides as inhibitors of bacterial infections” (Karlsruher Institut fur Technologie, priority 2009, dated 2015)

Experiments:
[1] = test system: c-Met; assay: InIB-induced c-Met phosphorylation in ASs6 cells; assay type: cell-based, rat; conditions: peptide 100 ng/ml before InIB
Experimental: (§1) AS cells or ASs6 cells were induced with InIB as indicated (A) and ASs6 cells in addition with a CD44v6 14-mer peptide having SEQ ID NO: 1 or an unrelated (control) peptide (B). Erk phosphorylation (A,B) or c-Met phosphorylation (B) was determined. In (C), HeLa cells were induced either with HGF or InIB for 5 min at 37° C. CD44v6 was immunoprecipitated from the lysates and a Western Blot was performed using CD44v6 and c-Met antibodies as indicated. For control, an IgG antibody was used. The numbers reflect-fold induction as determined by densitometric scanning (Image J program).
(§2) The human colon adenocarcinoma cell lines HT29 and the human cervix carcinoma cell line HeLa (American tissue culture collection, ATCC; Wesel, Germany. Accession no: CCL-2) were grown in Dulbecco's modified Eagle's medium (DMEM; Invitrogen, Karlsruhe, Germany) supplemented with 10% fetal calf serum (FCS; PAA Cölbe, Germany). The rat pancreatic carcinoma cell line BSp73AS and its transfectant BSp73ASs6 were grown in RMPI (Invitrogen, Karlsruhe, Germany) plus 10% FCS.
(§3) In all experiments cells were induced with 1 nM of InIB where indicated. Induction was performed for 5 min at 37° C. Blocking experiments were performed by incubating the CD44v6 14-mer peptide having for example SEQ ID NO: 2 or SEQ ID NO: 1 (100 ng/ml) or the control peptide (100 ng/ml) for 30 min at 37° C. prior to induction with InIB. […]

[2] = test system: Erk; assay: InIB-induced Erk phosphorylation in ASs6 cells; assay type: cell-based, rat; conditions: peptide 100 ng/ml before InIB
Experimental: as §1, §2, §3

[3] = test system: HT29 cells; assay: Scattering assay (InIB-induced); assay type: cell-based, human; conditions: InIB 1 nM 48 h, antibody 100 μg/ml or peptide 100 ng/ml
Experimental: Scattering of HT29 cells was determined after treatment with InIB alone or together with a control peptide or a CD44v6 peptide or antibody as indicated. The magnification used was ×20.
HT29 cells were seeded at a concentration of 3×10^5 cells/well in a 6-well plate. They were then incubated with InIB (1 nM) for 48 h at 37° C. For the blocking experiments, CD44 anti-v6 antibodies (Biwa; 100 μg/ml) or a CD44v6 peptide (100 ng/ml) were added before addition of InIB. Pictures were taken using a phase contrast microscope 48 h after induction.

[4] = test system: c-Met; assay: InIB-induced c-Met phosphorylation in HeLa and HT29 cells; assay type: cell-based, human; conditions: peptide 100 ng/ml 30 min before InIB 1 nM 5 min
Experimental: (§4) HeLa cells were induced with InIB (A) at a concentration of 1 nM for 5 min at 37° C. Pretreatment with a control peptide or a CD44v6 14-mer peptide having SEQ ID NO: 2 at a concentration of 100 ng/ml for 30 min was performed when indicated. Phosphorylation of c-Met and of Erk were measured as described in experimental procedures. The same experiments were performed with the HT29 cells (B). (C) HeLa cells were transfected with two different siRNA (v6-1 and v6-2, described in experimental procedures) to downregulate CD44v6 and with a control siRNA. 48 h after transfection, cells were starved for additional 24 h. InIB-induced c-Met and Erk phosphorylation were measured. The expression of CD44v6 was detected by Western Blot analysis. The numbers reflect-fold induction as determined by densitometric scanning (Image J program).
as §2
(§5) In all experiments cells were induced with 1 nM of InIB where indicated. […]

[5] = test system: Erk; assay: InIB-induced Erk phosphorylation in HeLa and HT29 cells; assay type: cell-based, human; conditions: peptide 100 ng/ml 30 min before InIB 1 nM 5 min
Experimental: as §4, §2, §5

[6] = test system: HeLa cells; assay: Latex bead invasion assay (InIB-coated beads); assay type: cell-based, human; conditions: HeLa cells preincubated with peptide
Experimental: Control beads or beads coated with InIB (see experimental procedures) were incubated with HeLa cells. Cells were pretreated with a CD44v6 peptide having SEQ ID NO: 2 or a control peptide for one hour as indicated. Extracellular beads bind to a Cy3-labelled antibody and are stained red in immunofluorescence microscopy. In phase contrast microscopy both extracellular and intracellular beads are detected. The number of internalized beads (black) was counted in approximately a thousand cells and shown as intracellular beads/100 cells in the graph. The results are expressed as means±standard deviation of three independent experiments.
In1B-dependent c-Met and Erk phosphorylation was measured in HeLa cells transiently transfected with a control vector or a vector coding for a truncated version of ezrin deprived of the actin binding domain (ezΔABD or DN Ezrin). In these cells also the uptake of latex beads was determined as described in FIG. 4.
Coating of the beads with InIB was performed as is known in the art. Briefly, 25 μl of latex beads (4×10^8 beads/ml, Dynabeads M-450, Dynal, Invitrogen, Karlsruhe, Germany) were coated with goat anti-mouse IgG and then incubated with 0.5 ml of hybridoma cell supernatant of monoclonal anti-InIB antibody for 2 h at 4° C. […]

Substance | InIB-induced c-Met phosphorylation [1] | InIB-induced Erk phosphorylation [2] | InIB-induced scattering [3] | InIB-induced activation of c-Met [4] | downstream signaling monitored by Erk activation [5] | entry of InIB-coated beads [6] | entry of InIB-coated beads blocked [6]
CD44v6 peptide having SEQ ID NO:1: CD44v6 14-mer peptide having SEQ ID NO: 1, used on rat ASs6 cells (KEKWFENEWQGKNP; listed as Rattus norvegicus) | abrogated | abrogated | – | – | – | – | –
KEQWFGNRWHEGYR (listed as Homo sapiens) [human CD44v6 14-mer peptide] | – | – | blocked | completely abrogated | inhibited | drastic decrease | ~100%
